Measurements from patent US8802597B2, “Herbicidal pyrimidines” (E I du Pont de Nemours and Company, priority 2003, dated 2014).
Read-outs that look alike come from different tables or passages of the source.

Experiments:
Assay type in all cases: in vivo
[1] = tested on: cocklebur (Xanthium strumarium); assay: Test C pre/postemergence; conditions: Xanthium strumarium; for pest or weed control at 62 g/ha: 62 g ai/ha; for pest or weed control at 125 g/ha: 125 g ai/ha; for pest or weed control at 250 g/ha: 250 g ai/ha; for pest or weed control at 500 g/ha: 500 g ai/ha
From the text: (§1) Seeds or nutlets of plant species selected from bermudagrass (Cynodon dactylon), Surinam grass (Brachiaria decumbens), cocklebur (Xanthium strumarium), corn (Zea mays), crabgrass (Digitaria sanguinalis), woolly cupgrass (Eriochloa villosa), giant foxtail (Setaria faberii), goosegrass (Eleusine indica), johnsongrass (Sorghum halepense), kochia (Kochia scoparia), lambsquarters (Chenopodium album), morningglory (Ipomoea coccinea), eastern black nightshade (Solanum ptycanthum), yellow nutsedge (Cyperus esculentus), pigweed (Amaranthus retroflexus), common ragweed (Ambrosia elatior), soybean (Glycine max), common (oilseed) sunflower (Helianthus annuus), and velvetleaf (Abutilon theophrasti) were planted and treated preemergence with test chemicals formulated in a non-phytotoxic solvent mixture which included a surfactant.
(§2) At the same time, plants selected from these crop and weed species and also winter barley (Hordeum vulgare), blackgrass (Alopecurus myosuroides), canarygrass (Phalaris minor), chickweed (Stellaria media), downy brome (Bromus tectorum), green foxtail (Setaria viridis), Italian ryegrass (Lolium multiflorum), wheat (Triticum aestivum), wild oat (Avena fatua) and windgrass (Apera spica-venti) were treated with postemergence applications of some of the test chemicals formulated in the same manner. Plants ranged in height from 2 to 18 cm (1- to 4-leaf stage) for postemergence treatments. Plant species in the flooded paddy test consisted of rice (Oryza sativa), umbrella sedge (Cyperus difformis), duck salad (Heteranthera limosa) and barnyardgrass (Echinochloa crus-galli) grown to the 2-leaf stage for testing. Treated plants and controls were maintained in a greenhouse for 12 to 14 days, after which time all species were compared to controls and visually evaluated. Plant response ratings, summarized in Table C, are based on a scale of 0 to 100 where 0 is no effect and 100 is complete control. A dash (-) response means no test result.

[2] = tested on: common ragweed (Ambrosia elatior); assay: Test C pre/postemergence; conditions: Ambrosia artemisiifolia; for pest or weed control at 62 g/ha: 62 g ai/ha; for pest or weed control at 125 g/ha: 125 g ai/ha; for pest or weed control at 250 g/ha: 250 g ai/ha; for pest or weed control at 500 g/ha: 500 g ai/ha
From the text: as §1, §2

[3] = tested on: corn (Zea mays); assay: Test C pre/postemergence; conditions: Zea mays; for Corn plant response rating (crop injury, 0 = no effect, 100 = complete kill) at 62 g/ha: 62 g ai/ha; for Corn plant response rating (crop injury, 0 = no effect, 100 = complete kill) at 125 g/ha: 125 g ai/ha; for Corn plant response rating (crop injury, 0 = no effect, 100 = complete kill) at 250 g/ha: 250 g ai/ha; for Corn plant response rating (crop injury, 0 = no effect, 100 = complete kill) at 500 g/ha: 500 g ai/ha
From the text: as §1, §2

[4] = tested on: lambsquarters (Chenopodium album); assay: Test C pre/postemergence; conditions: Chenopodium album; for pest or weed control at 62 g/ha: 62 g ai/ha; for pest or weed control at 125 g/ha: 125 g ai/ha; for pest or weed control at 250 g/ha: 250 g ai/ha; for pest or weed control at 500 g/ha: 500 g ai/ha
From the text: as §1, §2

[5] = tested on: chickweed (Stellaria media); assay: Test C postemergence; conditions: Stellaria media, post-emergence; for pest or weed control at 62 g/ha: 62 g ai/ha, scale 0 to 100 (0 no effect, 100 complete control), read-out: Chickweed plant response rating; for pest or weed control at 125 g/ha: 125 g ai/ha; for pest or weed control at 250 g/ha: 250 g ai/ha
Procedure, shortened: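 Visual injury ratings, 0 (no effect) to 100 (complete control), made 12 to 14 days after treatment by comparison with untreated controls. Greenhouse plants received test chemical in a surfactant-containing non-phytotoxic solvent, either preemergence on planted seeds or postemergence at the 1- to 4-leaf stage.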

[6] = post-emergence, Postemergence, scale 0 to 100 (0 no effect, 100 complete control), read-out: Cocklebur plant response rating
[7] = post-emergence, Postemergence, scale 0 to 100, read-out: Plant response rating, Cocklebur
[8] = pre-emergence, Preemergence, scale 0 to 100, read-out: Plant response rating, Cocklebur
[9] = post-emergence, Postemergence, scale 0 to 100 (0 no effect, 100 complete control), read-out: Ragweed plant response rating
[10] = post-emergence, Postemergence, scale 0 to 100, read-out: Plant response rating, Ragweed
[11] = pre-emergence, Preemergence, scale 0 to 100, 0 no effect, 100 complete control, read-out: Plant response rating, Ragweed
[12] = pre-emergence, Preemergence, scale 0 to 100, read-out: Plant response rating, Ragweed
[13] = post-emergence, Postemergence, scale 0 to 100 (0 no effect, 100 complete control), read-out: Corn plant response rating
[14] = post-emergence, Postemergence, scale 0 to 100
[15] = pre-emergence, Preemergence, scale 0 to 100, 0 no effect, 100 complete control, read-out: Plant response rating, Corn
[16] = pre-emergence, Preemergence, scale 0 to 100, read-out: Plant response rating, Corn
[17] = pre-emergence, Preemergence, scale 0 to 100
[18] = post-emergence, Postemergence, scale 0 to 100 (0 no effect, 100 complete control), read-out: Lambsquarters plant response rating
[19] = post-emergence, Postemergence, scale 0 to 100, read-out: Plant response rating, Lambsquarters
[20] = pre-emergence, Preemergence, scale 0 to 100, 0 no effect, 100 complete control, read-out: Plant response rating, Lambsquarters
[21] = pre-emergence, Preemergence, scale 0 to 100, read-out: Plant response rating, Lambsquarters
[22] = scale 0 to 100, read-out: Plant response rating, Chickweed

Row | Structure (SMILES) | pest or weed control at 62 g/ha [1, 6] | pest or weed control at 125 g/ha [1, 6] | pest or weed control at 250 g/ha [1, 7] | pest or weed control at 500 g/ha [1, 7] | pest or weed control at 125 g/ha [1, 8] | pest or weed control at 250 g/ha [1, 8] | pest or weed control at 500 g/ha [1, 8] | pest or weed control at 62 g/ha [2, 9] | pest or weed control at 125 g/ha [2, 9] | pest or weed control at 250 g/ha [2, 10] | pest or weed control at 500 g/ha [2, 10] | pest or weed control at 62 g/ha [2, 11] | pest or weed control at 125 g/ha [2, 12] | pest or weed control at 250 g/ha [2, 12] | pest or weed control at 500 g/ha [2, 12] | Corn plant response rating (crop injury, 0 = no effect, 100 = complete kill) at 62 g/ha [3, 13] | Corn plant response rating (crop injury, 0 = no effect, 100 = complete kill) at 125 g/ha [3, 13] | Corn plant response rating (crop injury, 0 = no effect, 100 = complete kill) at 250 g/ha [3, 14] | Corn plant response rating (crop injury, 0 = no effect, 100 = complete kill) at 500 g/ha [3, 14] | Corn plant response rating (crop injury, 0 = no effect, 100 = complete kill) at 62 g/ha [3, 15] | also measured
1 | CNc1nc(C2CC2)nc(C(=O)OC)c1Br [Compound 5] | 80% | 95% | 100% | 100% | 90% | 100% | 100% | 90% | 95% | 95% | 100% | 85% | 90% | 100% | 100% | 10% | 40% | 40% | 45% | 5% | pest or weed control at 62 g/ha ([1]; pre-emergence, Preemergence, scale 0 to 100, 0 no effect, 100 complete control, read-out: Plant response rating, Cocklebur): 10%; Corn plant response rating (crop injury, 0 = no effect, 100 = complete kill) at 125 g/ha [3, 16]: 5%; Corn plant response rating (crop injury, 0 = no effect, 100 = complete kill) at 250 g/ha [3, 17]: 20%; Corn plant response rating (crop injury, 0 = no effect, 100 = complete kill) at 500 g/ha [3, 17]: 50%; pest or weed control at 62 g/ha [4, 18]: 95%; pest or weed control at 125 g/ha [4, 18]: 100%; pest or weed control at 250 g/ha [4, 19]: 100%; pest or weed control at 500 g/ha [4, 19]: 100%; pest or weed control at 62 g/ha [4, 20]: 95%; pest or weed control at 125 g/ha [4, 21]: 95%; pest or weed control at 250 g/ha [4, 21]: 100%; pest or weed control at 500 g/ha [4, 21]: 100%; pest or weed control at 62 g/ha [5]: 0%; pest or weed control at 125 g/ha [5, 22]: 10%; pest or weed control at 250 g/ha [5, 22]: 20%
2 | Nc1nc(C2CC2)nc(C(=O)O)c1Br [Compound 8] | 80% | 100% | 100% | 100% | 85% | 100% | 100% | 60% | 80% | 95% | 100% | 100% | 100% | 100% | 100% | 0% | 20% | 70% | 90% | 0% | Corn plant response rating (crop injury, 0 = no effect, 100 = complete kill) at 125 g/ha [3, 16]: 0%; Corn plant response rating (crop injury, 0 = no effect, 100 = complete kill) at 250 g/ha [3, 17]: 10%; Corn plant response rating (crop injury, 0 = no effect, 100 = complete kill) at 500 g/ha [3, 17]: 75%; pest or weed control at 62 g/ha [4, 18]: 75%; pest or weed control at 125 g/ha [4, 18]: 100%; pest or weed control at 250 g/ha [4, 19]: 100%; pest or weed control at 500 g/ha [4, 19]: 100%; pest or weed control at 62 g/ha [4, 20]: 0%; pest or weed control at 125 g/ha [4, 21]: 20%; pest or weed control at 250 g/ha [4, 21]: 90%; pest or weed control at 500 g/ha [4, 21]: 100%; pest or weed control at 62 g/ha [5]: 20%; pest or weed control at 125 g/ha [5, 22]: 75%; pest or weed control at 250 g/ha [5, 22]: 95%; pest or weed control at 500 g/ha ([5]; 500 g ai/ha, scale 0 to 100, read-out: Plant response rating, Chickweed): 100%
